# What was measured:
# collagen deposition [1] = test: Bleomycin-induced lung injury in mice, preventive model (SIRCOL collagen assay); format: in vivo; conditions: day 35
# Experimental: (§1) Control animals are subjected to the same protocol but received the same volume of intratracheal saline instead of BLM. Tracheal instillation is carried out under ketamin (80 mg/kg of body weight, i.p.) and xylazine (20 mg/kg de body weight, i.p.) anesthesia.
# (§2) […] after endotracheal BLM or saline, the animals are killed by a lethal injection of sodium pentobarbital followed by exsanguination of abdominal aorta. Lungs are weighed and processed separately for biochemical (n=10 lungs per group) and histological studies (n=5 per group) as indicated below. The animals are randomly divided into four groups: control-saline (n=8) and control+BLM (n=15); Compound Dose 1+BLM (n=15) and Compound Dose 2+BLM (N=15). Treatments vehicle or compounds are administered for 5 weeks.
# (§3) Mice are treated by daily oral administration of compound according to the invention or saline/control starting on day 0 for five weeks in the preventive model and starting on day 10 up to five weeks for the curative model. Whole lung accumulation of acid-soluble collagen is analyzed by Sircol assay.
# The broad lines of the above protocol were followed. […] 35 days after endotracheal BLM or saline, the animals are killed and lungs are processed as indicated above for quantification of collagen deposition and lung inflammation by SIRCOL assay (TebuBio, ref S1000).
# collagen deposition [2] = test: Bleomycin-induced lung injury in mice, curative model (SIRCOL collagen assay); format: in vivo
# Experimental: as §1, §2, §3
# The broad lines of the above protocol were followed. At day 0, animals received an intratracheal injection of 0.0125 UI of bleomycin (40 μl) to produce pulmonary lesions. Curative treatment group was orally administered a compound of the invention once a day for 3.5 weeks starting from day 10 to day 35. The animals are randomly divided into six groups: control-saline (n=8); 2 groups control+BLM (n=13); Compound 3 of the invention per os 40 mg/kg+BLM (n=13); Compound 3 of the invention per os 10 mg/kg+BLM (n=13) and Pirfenidone (AQCHEM, ref P1002) at 100 mg/kg per os+BLM (n=13). One bleomycin control group was stopped at day 10, the animals were killed and collagen levels were measured. For the other groups, 35 days after endotracheal BLM or saline, the animals are killed and lungs are processed as indicated above for quantification of collagen deposition and lung inflammation as indicated above. […]
# NOX activities [3] = test: H2DCF-DA ROS measurement in TGF-β stimulated HUVEC; format: cell-based, Human; conditions: 'usually'
# Experimental: HUVEC are cultured in endothelial basal medium supplemented with hydrocortisone (1 μg/mL, CalbioChem), bovine brain extract (12 μg/mL), gentamicin (50 μg/mL, CalbioChem), amphotericin B (50 ng/mL, CalBioChem EGF (10 ng/mL, and 10% FCS until the fourth passage. When the fifth passage was started, cells were cultured with a lower concentration of FCS (2%) in the absence of EGF, if not indicated otherwise. All experiments were done with cells of the fifth passage. The cells were incubated with O×LDL (oxidized low-density lipoprotein) or its buffer as control for 24 h, before detection of O2^− formation.
# HUVEC were plated on coverslips and made quiescent overnight in 0.5% BSA before stimulation with TGF-β. Cells were loaded for 10 minutes with 5 μM CM-H2DCFDA in phenol-red-free medium in the dark and then treated with TGF-β (R&D Systems) in the presence or absence of compounds according to the invention. Cells were then visualized by immunofluorescence microscopy after fixation and staining of the nuclei with DAPI or examined live using confocal microscopy. DCF fluorescence was visualized at an excitation wavelength of 488 nm and emission at 515 to 540 nm. […] For calculation, the absorbance at […] was normalized to absorbance at […] for each individual well. […] NOX activities were expressed as % of the activity in control cells. […]
# NOX activities [4] = test: Chemiluminescence (luminol) ROS measurement in cells; format: cell-based; conditions: 'usually'
# Experimental: ROS was measured using the chemiluminescent probe luminol. Cells were cultured and plated as for Amplex Red except that the Amplex Red agent was replaced by 10 μg/mL luminol (Sigma 09235). Light emission was recorded continuously at 37° C. for 60 minutes using the luminescence function of the FluoStar Optima fluorescent plate reader. The mean of the four blank values was subtracted from each corrected value for each time point. NOX activities were expressed as % of the activity in control cells. Residual activity of DPI-treated cells was usually <10%.
# NOX activities [5] = test: Nitroblue tetrazolium (NBT) superoxide test in cells; format: cell-based; conditions: DPI 10 μM, 'usually'
# Experimental: Intracellular and extracellular superoxide was measured by a colorimetric technique using a quantitative nitroblue tetrazolium (NBT) test. SOD-inhibitable conversion of NBT to formazan, a fine blue precipitate, in the presence of superoxide anion was measured using Fluostar Optima spectrometer (BMG labtech). Following incubation with appropriate stimuli, cells were trypsinized (1× Trypsin-EDTA), collected by centrifugation, and washed with PBS to remove medium. 5×10^5 cells were plated on 48-well plates and incubated in Hank's balanced salt solution containing 0.5 mg/mL NBT with or without 800 U/mL SOD in the presence or absence of compounds according to the invention. As a control, DPI was included at a final concentration of 10 μM. After 2.5 h, cells were fixed and washed with methanol to remove non reduced NBT. The reduced formazan was then dissolved in 230 μl of 2M potassium hydroxide and in 280 μl of dimethylsulfoxide. The absorption was measured at 630 nm. For calculation, the absorbance at 630 nm was normalized for each individual well. The mean of the four blank values was subtracted from each corrected value for each time point. NOX activities were expressed as % of the activity in control cells. Residual activity of DPI-treated cells was usually <10%.
# NOX activity = system: T1, NOX activity; test: Amplex Red measurement of extracellular hydrogen peroxide (NOX activity) in DMSO-differentiated HL60 cells; format: cell-based, Human; conditions: DPI 10 μM, 'usually'
# T1 construct: rows headed: Residual activity of DPI-treated cells (NOX activity, % of control cells); other: Amplex Red, DPI 10 μM, 'usually'
# Experimental: Human acute myeloid leukemia cell line HL-60 was cultured in RPMI 1640 (Invitrogen) supplemented with 10% heat-inactivated calf serum, 2 mM glutamine, 100 U/mL penicillin (Sigma), and 100 μg streptomycin (Sigma) at 37° C. under a humidified atmosphere of 5% CO2. HL60 differentiation to the neutrophil phenotype was triggered by adding Me2SO (final concentration 1.25% v/v for 6 days) to the culture medium.
# Extracellular hydrogen peroxide was measured using Amplex UltraRed (Molecular Probes). Cells were trypsinized (1× Trypsin-EDTA), collected by centrifugation, and resuspended in HBSS supplemented with 1% glucose. Cells were seeded into black 96-well plates at a density of 50,000 cells in 200 μl testing buffer (HBSS 1% glucose containing 0.005 U/mL horseradish peroxidase (Roche) and 50 μM Amplex Red in the presence or absence of compounds according to the invention. As a control, DPI was included at a final concentration of 10 μM The plates were placed in the fluorescent Optima Fluorescent plate reader and kept at 37° C. during 20 min. Fluorescence was measured for […] with excitation and emission wavelengths of 544 nm and 590 nm respectively. NOX activities were expressed as % of the activity in control cells. Residual activity of DPI-treated cells was usually <10%.
compound,measurement,setting,value
"O=c1c2c3n(c(=O)cc2[nH]n1-c1ccccc1Cl)CCCN(Cc1ccccc1)C3 [Compound 3, 10-benzyl-2-(2-chlorophenyl)-2,3,8,9,10,11-hexahydro-1H-pyrazolo[4′,3′:3,4]pyrido[1,2-a][1,4]diazepine-1,5(7H)-dione]",inhibition of collagen deposition as compared to bleomycin control,collagen deposition [1]; 40 mg/kg per os once a day from day 0 for five weeks,46%
same,inhibition of collagen deposition as compared to bleomycin control,"collagen deposition [2]; 10 mg/kg per os once a day from day 10 to day 35, mice",64%
same,inhibition of collagen deposition as compared to bleomycin control,"collagen deposition [2]; 40 mg/kg per os once a day from day 10 to day 35, mice",52%
"c1ccc([I+]c2ccccc2)cc1 [DPI, Diphenyl-iodonium]","Residual activity of DPI-treated cells (NOX activity, % of control cells)",NOX activities [3],< 10%
same,"Residual activity of DPI-treated cells (NOX activity, % of control cells)",NOX activities [4],< 10%
same,"Residual activity of DPI-treated cells (NOX activity, % of control cells)",NOX activities [5],< 10%
same,"Residual activity of DPI-treated cells (NOX activity, % of control cells)",NOX activity,< 10%
Cc1ccc(=O)n(-c2ccccc2)c1 [Pirfenidone],inhibition of collagen deposition as compared to bleomycin control,collagen deposition [1]; 100 mg/kg per os once a day from day 0 for five weeks,45%
same,inhibition of collagen deposition as compared to bleomycin control,"collagen deposition [2]; 100 mg/kg per os once a day from day 10 to day 35, mice",12%

# — patent US9394306B2, “Pyrazoline dione derivatives as NADPH oxidase inhibitors” (GENKYOTEX SA, priority 2009, dated 2016)
